Source: PubChem BioAssay AID179 (DTP/NCI, 2004)
The source made the active and inactive calls.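 The calls were made as follows: active = compounds giving half or more protection of infected cells from virus-caused growth loss, again on retest; inactive = the rest.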 Where a SMILES comes first, the peptide text is derived from it. Bridges are numbered along the chain shown (N, C = ends). The star is where a group is joined. Cbz = O=C(OCc1ccccc1)*; OBn = c1ccc(CO*)cc1

Test system: CEM cells HIV-1 protection, formazan growth assay
Experiment: NCI AIDS Antiviral Assay
Conditions: for IC50: measured here: growth of uninfected CEM cells
How it was run: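 Category rules: moderately active means at least 50% protection on retest, and confirmed active means 100% protection reproducibly. The underlying data came from a formazan growth assay in HIV-1-infected CEM cells.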

Row | SMILES | EC50 | IC50 | outcome
1 | Cc1nc(NC(C)(CO)CO)nc2c1C(=O)Nc1ccccc1N2 | > 200 µM | > 200 µM | –
2 | CCOC(=O)N/N=C(/N)c1cccc([N+](=O)[O-])c1 | > 200 µM | > 200 µM | –
3 | COc1ccc(C[n+]2cccc(O)c2)cc1 | > 200 µM | 112 µM | –
4 | CCOC(=O)C(C)c1nc2cc(F)c(F)cc2[nH]c1=O (configuration not stated) | > 200 µM | > 200 µM | –
5 | COC(=O)C1CCC(=O)NCCCCC(NC(=O)C(CC(=O)OCc2ccccc2)NC(=O)OCc2ccccc2)C(=O)N1 (stereo not drawn) (Cbz-Asp(OBn)-Lys-Glu-OMe; lactam 2-3; configuration not given here) | > 200 µM | > 200 µM | –
6 | Cc1c(CCOC=O)c(=O)[nH]c2nncn12 | 14.1 µM | > 200 µM | –
7 | C=C1C(=O)O[C@@H]2C1C(OC(C)CCC)[C@@H](O)[C@@H](C)C(O)C1O[C@]1(C)[C@H]2O (some centres not stated) | – | – | inactive
8 | COc1ccc2ccnc(Cc3ccc(OCc4ccccc4)c(OC)c3)c2c1 | – | – | inactive
9 | O=C1CCC2(c3ccccc3)Nc3ncccc3N12 (configuration not stated) | > 200 µM | > 200 µM | –
10 | O=C(OC1=CCN(Br)C1=O)C1=C(O)C(=O)N(Br)C1 | > 200 µM | 32.4 µM | –
11 | CC(C)C1NC(=O)C(Cc2ccccc2)NC(=O)C2NC(=O)C(Cc3ccccc3)NC(=O)C3CCCN3C(=O)CNC(=O)C(Cc3ccccc3)NC(=O)C3CNCCCCC(C(=O)O)NC(=O)C4NC(=O)C(CC(N)=O)NC(=O)CNC(=O)C(C(O)C(=O)O)NC(=O)C(CSCC(NC(=O)C(CCC(N)=O)NC(=O)C(CCCNC(=N)N)NC(=O)C(N)CSC4C)C(=O)NC(CSC2C)C(=O)N3)NC1=O (configuration not stated) | – | – | active
12 | O=C(O)c1ccc2c3c(ncnc13)-c1ccccc1C2=O | > 200 µM | 14.8 µM | –
13 | CN(C)C1C(=O)C(C(N)=O)=C(O)C2(O)C(=O)C3=C(O)c4c(O)cccc4C(C)(O)C3CC12.[Cl][Sb]([Cl])[Cl] (configuration not stated) | > 200 µM | 35.5 µM | –
14 | CCOC(=O)/C(C#N)=C/N(CC)/N=C/c1ccccc1 | > 200 µM | > 200 µM | –
15 | O=C1CCC2(CC1CC(Sc1ccccc1)Sc1ccccc1)OCCO2 (configuration not stated) | > 200 µM | 41.7 µM | –
16 | O=C(CNc1cccc([N+](=O)[O-])c1)Nn1c(-c2ccccc2)nc2ccccc2c1=O | > 20 µM | 1.05 µM | –
17 | C#CC1NC(=O)C1N(CC)CC (configuration not stated) | – | – | inactive
18 | CC12OC(=O)[C@@]3(O)CCC4C(C[C@H]5O[C@]56CC=CC(=O)[C@]46C)C45OC[C@H]6C(=O)O[C@@H]1C[C@@]6(C)[C@H](C4=O)C23O5 (some centres not stated) | > 200 µM | 0.398 µM | –
19 | Cc1cn(C2CCN(CC3COC(C)(C)O3)O2)c(=O)[nH]c1=O (configuration not stated) | > 200 µM | > 200 µM | –
20 | Nc1ncnc2c1N=CN(Oc1ccccc1)N2 | – | – | inactive

Row | SMILES | EC50 | IC50 | outcome
21 | C=C(c1ccc(OC)cc1)C(CC)c1ccc(OC)cc1 (configuration not stated) | > 200 µM | 37.2 µM | –
22 | Cc1[nH]c(=O)c2oc3cc4ccccc4cc3c2c1C(=O)O | > 200 µM | > 200 µM | –
23 | CN1C(c2ccccc2)=C(C#N)C(=O)CC(c2cccs2)N1C (configuration not stated) | > 200 µM | 191 µM | –
24 | O=C1NC2(CCCC2)C(=O)N2CCCC12 (configuration not stated) | > 129 µM | > 129 µM | –
25 | [O-][N+]1=C2CCC/C(=N/O)C2(O)C2CCCCC21N1CCOCC1 (configuration not stated) | > 200 µM | > 200 µM | –
26 | O=C(O)Cc1cc(=O)oc2cc(O)ccc12 | > 1120 µM | > 1120 µM | –
27 | CCOC(=O)/C(C#N)=N\Nc1ccc(-n2c(C)nc3ccccc3c2=O)cc1 | > 200 µM | 89.1 µM | –
28 | O=c1c(O)c(-c2cc(O)c(O)cc2O)oc2cc(O)c(C3OC(CO)C(O)C(O)C3O)c(O)c12 (configuration not stated) | > 200 µM | 138 µM | –
29 | CC(=O)NC1=C(C)C(=O)c2c(nc3n2CCC3O)C1=N (configuration not stated) | > 200 µM | 24 µM | –
30 | CC1=CC2=C(C#N)C(=O)OC2(C)C(c2ccccc2)C1 (configuration not stated) | > 200 µM | 117 µM | –
31 | C=C1C[C@]2(C)c3ccccc3NC(=O)[C@H]12 | 162 µM | > 200 µM | –
32 | COc1nc2c(nnn2C2OC(CO)C(O)C(O)C2O)c(=O)n1C (configuration not stated) | – | – | inactive
33 | CC(=O)NCC1OC2COC(c3ccccc3)OC2C(NC(=O)c2ccccc2)C1OC(=O)c1ccccc1 (configuration not stated) | – | – | inactive
34 | CC(=O)OCC1OC(n2c3c(cc(C#N)c2=O)CCCCCC3)C(OC(C)=O)C(OC(C)=O)C1OC(C)=O (configuration not stated) | > 200 µM | 170 µM | –
35 | Cc1cc(OCC(O)CO)ccc1-c1ccccc1 (configuration not stated) | > 977 µM | 295 µM | –
36 | Cc1cccc(N(C=O)c2c(O)nc(N)[nH]c2=O)c1 | > 200 µM | > 200 µM | –
37 | CN1CCN(C(=S)N(C(=O)c2ccc(Cl)cc2)c2ccccc2)CC1 | > 13.8 µM | > 13.8 µM | –
38 | CCCCNCC(=O)O[C@]1(CC)C(=O)OCc2c1cc1n(c2=O)Cc2cc3ccccc3nc2-1 | > 10 µM | 0.0776 µM | –
39 | CCCCCCCCCCCCCCCCCCOC(CO)COP(=O)(O)OCC1OC(n2cc(C)c(=O)[nH]c2=O)CC1F (configuration not stated) | 0.00155 µM | 2 µM | –
40 | CC(=O)N1CN2C(=O)CCC2c2ccccc21 (configuration not stated) | – | – | inactive
